According to US8772002B1, “Method for treatment of microorganisms during propagation, conditioning and fermentation using hops acid extracts and organic acid” (Hercules Incorporated, priority 2013, dated 2014):
Like-named read-outs stand apart in the source and are kept apart here.

Legend:
Lactobacillus plantarum = assay: Minimal Inhibitory Concentration (MIC), two-fold dilution series in 96 well microplate; format: cell-based; conditions: for MIC: Lactiplantibacillus plantarum
Experimental: This is the lowest concentration of a substance or substances which can achieve complete inhibition of growth.
In order to determine the Minimal Inhibitory Concentration, a two-fold dilution series of the antimicrobial is constructed with the dilutions being made in growth media. The dilutions are made in a 96 well microplate such that each well has a final volume of 280 μl of media and antimicrobial. […] After the dilution series is constructed the wells receive an inoculum of microbe suspended in growth media such that the final concentration of microbes in the well is i˜5×10^5 cfu/ml. In these examples the test microbe used is Lactobacillus plantarum. The cultures are incubated at 37° C. for 18-24 hours, and the wells scored as positive or negative for growth based on a visual examination for turbid wells, with turbidity being an indicator of growth.
(§1) Minimal inhibitory concentrations were determined for both citric acid and hops acid at pH 6 using the protocol described above with Lactobacillus plantarum as the test microbe. Checkerboard synergy plates were constructed as described, the wells inoculated to a final concentration of ˜5×10^5 cfu/ml, incubated for 18-24 hours, and then scored visually for growth/no growth.
as §1, with “benzoic” for “citric”

Weisella confusa = conditions: cited from earlier work
fermentation = conditions: cited from earlier work

Compound: O=C(O)c1ccccc1 [Benzoic Acid, benzoic acid]
- MIC (Lactobacillus plantarum; pH 6, read-out: Benzoic Acid MIC (QA) used alone): 100 mg/mL

Compound: O=C(O)CC(O)(CC(=O)O)C(=O)O [Citric Acid, citric acid]
- MIC (Lactobacillus plantarum; pH 6, 37° C., 18-24 hours, complete inhibition of growth, read-out: Citric Acid MIC (QA) used alone): 100 mg/mL
- Citric Acid MIC (QA) used alone (Lactobacillus plantarum; pH 6, 37° C., 18-24 hours, complete inhibition of growth): 100000 ppm

Compound: Virginiamycin
- concentration required to inhibit growth of Weisella confusa (Weisella confusa): over 25 mg/L
- concentration that will suppress fermentation (fermentation): over 2 mg/L
